Source: patent US11884671B2, “Purinone compounds and their use in treating cancer” (ASTRAZENECA AB, priority 2018, dated 2024)

Experiments:
JAK2 = JAK2 (Homo sapiens (Human), UniProt O60674); experiment: JAK2 enzyme assay (Z'-LYTE); type: biochemical; conditions: 25 μM ATP, arithmetic mean of two or more experiments; for IC50: read-out: JAK2 enz pIC50 (converted)
JAK3 = JAK3 (Homo sapiens (Human), UniProt P52333); experiment: JAK3 enzyme assay (Z'-LYTE); type: biochemical; conditions: 10 μM ATP, arithmetic mean of two or more experiments; for IC50: read-out: JAK3 enz pIC50 (converted)
DNAPK = DNAPK (Homo sapiens (Human), UniProt P78527); experiment: DNAPK cellular potency assay (DNA-PK cell), pS2056-DNAPK ELISA in irradiated A549 cells; type: cell-based; conditions: 8 Gy radiation, arithmetic mean of two or more experiments, read-out: DNA-PK cell pIC50 (converted)
[1] = molecular target: Full length human DNAPK protein (Homo sapiens (Human), UniProt P78527); experiment: DNAPK enzyme potency assay (DNA-PK enz), TR-FRET; type: biochemical; conditions: arithmetic mean of two or more experiments, 18 μM ATP; for IC50: read-out: DNA-PK enz pIC50 (converted)
Text: The following assays were used to measure the effects of the compounds described herein: a) DNAPK enzyme potency assay; b) DNAPK cellular potency assay. During the description of the assays, generally: • i. The following abbreviations have been used; DMSO=Dimethyl Sulphoxide; DTT=Dithiothreitol; EDTA=Ethylenediaminetetraacetic Acid, TR-FRET=Time Resolved Fluorescence Resonance Energy Transfer, ATP=Adenosine triphosphate, DTT=Dithiothreitol, DNA=Deoxyribonucleic acid, HEPES=(2-hydroxyethyl)-1-piperazineethanesulfonic acid • ii. […] Assay a): DNAPK Enzyme Potency Assay (DNA-PK Enz)
The inhibitory activity of compounds against DNAPK was determined by TR-FRET measuring a fluorescent labelled peptide substrate converting to a phosphorylated product. Fluorescently tagged peptide substrate were purchased from Thermo Fisher Scientific. 12 point half-log compound concentration-response curves, with a top concentration of 100 μM were generated from 10 mM stocks of compound solubilised in DMSO using an Echo 555 (Labcyte Inc., Sunnyvale, CA). All assays were preformed in white Greiner 1536 well low volume plates (Greiner Bio-One, UK), in a total reaction volume of 3 μL and 1% (v/v) final DMSO concentration. Enzymes and substrates were added separately to the compound plates and incubated at room temperature. The kinase reaction was then quenched by the addition of 3 μL of stop buffer. Stopped assay plates were read using a BMG Pherastar. IC50 values were calculated using a Genedata Screener® software (Genedata, Inc., Basel, Switzerland).
Full length human DNAPK protein was purified from HeLa cell extract by ion exchange. Initially DNAPK protein was incubated with compound for 30 minutes at room temperature in reaction buffer (50 mM Hepes pH 7.5, 0.01% Brij-35, 10 mM MgCl2, 1 mM EGTA, 1 mM DTT, […] Calf Thymus DNA). The reaction was then initiated by the addition of ATP and fluorescently tagged peptide substrate (Fluorescein-[…], Thermo Fisher Scientific). […] The reaction was incubated for a further hour and the plates were read on a BMG Pherastar.
Data was analysed and IC50 values were calculated using Genedata Screener® software (Genedata, Inc., Basel, Switzerland).

AURKB (Aurora B) = AURKB (Aurora B) (Homo sapiens (Human), UniProt Q96GD4); experiment: Aurora-B enzyme assay (Z'-LYTE); type: biochemical; conditions: 75 μM ATP, arithmetic mean of two or more experiments; for IC50: read-out: AurB enz pIC50 (converted)
AURKB (Aurora B), sequence (Q96GD4 whole entry): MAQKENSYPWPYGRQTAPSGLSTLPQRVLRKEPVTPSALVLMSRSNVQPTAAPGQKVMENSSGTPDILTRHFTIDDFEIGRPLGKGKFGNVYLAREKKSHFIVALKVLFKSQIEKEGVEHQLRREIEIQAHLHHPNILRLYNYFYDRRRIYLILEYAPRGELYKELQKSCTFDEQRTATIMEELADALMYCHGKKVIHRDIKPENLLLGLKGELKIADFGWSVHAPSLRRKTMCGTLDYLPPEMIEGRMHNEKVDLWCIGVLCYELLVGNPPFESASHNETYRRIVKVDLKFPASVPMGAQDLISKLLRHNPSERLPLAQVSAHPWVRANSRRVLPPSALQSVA

JAK2, sequence (O60674 whole entry): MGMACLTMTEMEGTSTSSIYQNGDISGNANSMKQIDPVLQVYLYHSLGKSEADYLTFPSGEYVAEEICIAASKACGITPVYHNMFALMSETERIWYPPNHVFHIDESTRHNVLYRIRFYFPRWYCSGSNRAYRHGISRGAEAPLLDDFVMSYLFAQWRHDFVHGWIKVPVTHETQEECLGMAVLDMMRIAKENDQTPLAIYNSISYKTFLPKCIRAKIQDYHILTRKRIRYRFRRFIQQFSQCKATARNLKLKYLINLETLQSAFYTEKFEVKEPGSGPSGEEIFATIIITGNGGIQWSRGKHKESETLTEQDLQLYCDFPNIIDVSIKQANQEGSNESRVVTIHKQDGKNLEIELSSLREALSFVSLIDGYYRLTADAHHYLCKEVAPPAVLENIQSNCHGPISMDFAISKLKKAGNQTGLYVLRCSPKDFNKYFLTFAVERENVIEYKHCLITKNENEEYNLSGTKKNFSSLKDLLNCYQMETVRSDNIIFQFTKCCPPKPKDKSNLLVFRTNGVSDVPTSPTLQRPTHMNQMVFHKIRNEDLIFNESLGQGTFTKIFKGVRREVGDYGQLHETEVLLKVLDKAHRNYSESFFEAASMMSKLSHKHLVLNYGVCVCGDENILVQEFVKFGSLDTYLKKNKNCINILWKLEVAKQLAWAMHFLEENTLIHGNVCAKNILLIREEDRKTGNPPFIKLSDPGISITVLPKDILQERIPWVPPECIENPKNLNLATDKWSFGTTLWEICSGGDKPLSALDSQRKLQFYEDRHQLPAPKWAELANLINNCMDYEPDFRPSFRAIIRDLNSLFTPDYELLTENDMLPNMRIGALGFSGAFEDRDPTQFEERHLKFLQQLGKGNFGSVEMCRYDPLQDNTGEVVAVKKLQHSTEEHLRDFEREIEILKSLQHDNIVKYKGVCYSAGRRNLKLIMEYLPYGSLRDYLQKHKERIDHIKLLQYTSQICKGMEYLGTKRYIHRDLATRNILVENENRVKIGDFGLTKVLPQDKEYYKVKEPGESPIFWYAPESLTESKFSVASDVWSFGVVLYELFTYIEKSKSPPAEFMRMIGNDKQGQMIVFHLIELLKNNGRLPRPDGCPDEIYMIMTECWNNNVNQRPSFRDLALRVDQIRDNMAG
JAK3, sequence (P52333 whole entry): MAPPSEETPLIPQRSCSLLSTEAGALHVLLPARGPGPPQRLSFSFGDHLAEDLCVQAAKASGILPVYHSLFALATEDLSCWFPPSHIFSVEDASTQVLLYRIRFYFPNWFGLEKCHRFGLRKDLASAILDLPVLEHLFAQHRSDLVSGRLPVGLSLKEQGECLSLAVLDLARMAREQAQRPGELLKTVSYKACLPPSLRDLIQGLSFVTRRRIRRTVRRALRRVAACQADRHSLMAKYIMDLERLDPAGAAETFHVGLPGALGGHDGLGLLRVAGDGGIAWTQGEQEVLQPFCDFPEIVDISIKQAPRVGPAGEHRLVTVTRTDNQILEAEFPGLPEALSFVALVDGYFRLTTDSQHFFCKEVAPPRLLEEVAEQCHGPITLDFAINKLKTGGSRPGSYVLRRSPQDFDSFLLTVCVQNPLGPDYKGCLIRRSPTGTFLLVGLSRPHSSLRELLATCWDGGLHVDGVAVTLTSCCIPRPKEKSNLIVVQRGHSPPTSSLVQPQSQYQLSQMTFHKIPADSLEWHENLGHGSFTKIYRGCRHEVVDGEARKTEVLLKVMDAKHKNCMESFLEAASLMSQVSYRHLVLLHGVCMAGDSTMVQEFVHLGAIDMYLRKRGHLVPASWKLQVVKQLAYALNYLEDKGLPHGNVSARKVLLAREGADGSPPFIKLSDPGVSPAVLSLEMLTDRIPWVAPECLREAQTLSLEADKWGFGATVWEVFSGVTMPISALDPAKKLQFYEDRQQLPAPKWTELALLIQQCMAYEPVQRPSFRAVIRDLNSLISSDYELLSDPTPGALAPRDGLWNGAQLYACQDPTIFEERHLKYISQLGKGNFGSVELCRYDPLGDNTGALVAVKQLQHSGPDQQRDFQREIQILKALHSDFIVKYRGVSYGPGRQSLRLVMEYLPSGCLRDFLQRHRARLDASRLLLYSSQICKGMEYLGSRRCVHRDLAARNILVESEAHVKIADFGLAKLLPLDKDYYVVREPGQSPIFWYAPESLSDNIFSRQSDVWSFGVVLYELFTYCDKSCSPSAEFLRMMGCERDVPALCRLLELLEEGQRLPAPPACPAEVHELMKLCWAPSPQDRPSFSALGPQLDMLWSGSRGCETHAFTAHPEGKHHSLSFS

| Structure (SMILES) | JAK2 enz pIC50 (JAK2) | JAK3 enz pIC50 (JAK3) | IC50 (DNAPK) [nM] | DNA-PK enz pIC50 [1] | AurB enz pIC50 (AURKB (Aurora B)) | IC50 (JAK2) [nM] | IC50 (JAK3) [nM] | IC50 [1] [nM] | IC50 (AURKB (Aurora B)) [nM] |
| --- | --- | --- | --- | --- | --- | --- | --- | --- | --- |
| Cc1cc2nnccc2cc1Nc1ncc2c(n1)n([C@H]1CCCOC1)c(=O)n2C [Example 27, (S)-7-methyl-2-((7-methylcinnolin-6-yl)amino)-9-(tetrahydro-2H-pyran-3-yl)-7,9-dihydro-8H-purin-8-one] | <5 | <5 | 12.6 | >10 | <5 | – | – | – | – |
| Cc1cc2nccnc2cc1Nc1ncc2c(n1)n([C@H]1CCCOC1)c(=O)n2C [Example 28, (S)-7-methyl-2-((7-methylquinoxalin-6-yl)amino)-9-(tetrahydro-2H-pyran-3-yl)-7,9-dihydro-8H-purin-8-one] | <5 | <5 | 15.8 | >10 | <5 | – | – | – | – |
| Cc1cnc2cc(Nc3ncc4c(n3)n(C3CCOCC3)c(=O)n4C)c(C)cc2n1 [Example 33, 2-((2,7-dimethylquinoxalin-6-yl)amino)-7-methyl-9-(tetrahydro-2H-pyran-4-yl)-7,9-dihydro-8H-purin-8-one] | – | – | 126 | – | – | > 10000 | > 10000 | 0.501 | > 10000 |
| Cc1cnc2cc(C)c(Nc3ncc4c(n3)n(C3CCOCC3)c(=O)n4C)cc2n1 [Example 34, 2-((3,7-dimethylquinoxalin-6-yl)amino)-7-methyl-9-(tetrahydro-2H-pyran-4-yl)-7,9-dihydro-8H-purin-8-one] | – | – | 31.6 | – | – | > 10000 | > 10000 | < 0.1 | > 10000 |
| Cc1cc2ncccc2cc1Nc1ncc2c(n1)n(C1CCS(=O)(=O)CC1)c(=O)n2C [Example 35, 9-(1,1-dioxidotetrahydro-2H-thiopyran-4-yl)-7-methyl-2-((7-methylquinolin-6-yl)amino)-7,9-dihydro-8H-purin-8-one] | <5 | 5.2 | 39.8 | >10 | <5 | – | – | – | – |
| Cc1cc2ncccc2cc1Nc1ncc2c(n1)n(C1COC1)c(=O)n2C [Example 36, 7-methyl-2-((7-methylquinolin-6-yl)amino)-9-(oxetan-3-yl)-7,9-dihydro-8H-purin-8-one] | <5.1 | <5 | 31.6 | 9.7 | <5 | – | – | – | – |
| Cc1cc2ncccc2cc1Nc1ncc2c(n1)n([C@@H]1CCNC[C@@H]1F)c(=O)n2C [Example 38, 9-((3S,4R)-3-fluoropiperidin-4-yl)-7-methyl-2-((7-methylquinolin-6-yl)amino)-7,9-dihydro-8H-purin-8-one] | <5 | <5 | 3160 | 8.0 | <5 | – | – | – | – |
| Cc1cc2ncccc2cc1Nc1ncc2c(n1)n([C@H]1CC[C@@](C)(N)CC1)c(=O)n2C [Example 39, 9-((1s,4s)-4-amino-4-methylcyclohexyl)-7-methyl-2-((7-methylquinolin-6-yl)amino)-7,9-dihydro-8H-purin-8-one] | – | – | 79.4 | – | – | > 10000 | > 10000 | 1 | > 10000 |
| Cc1cc2ncccc2cc1Nc1ncc2c(n1)n([C@H]1CC[C@](C)(N)CC1)c(=O)n2C [Example 40, 9-((1r,4r)-4-amino-4-methylcyclohexyl)-7-methyl-2-((7-methylquinolin-6-yl)amino)-7,9-dihydro-8H-purin-8-one] | – | – | 158 | – | – | > 10000 | > 7940 | 0.316 | > 10000 |
| Cc1cc2ncccc2cc1Nc1ncc2c(n1)n([C@@H]1CCN(C)C[C@@H]1F)c(=O)n2C [Example 46, 9-((3S,4R)-3-fluoro-1-methylpiperidin-4-yl)-7-methyl-2-((7-methylquinolin-6-yl)amino)-7,9-dihydro-8H-purin-8-one] | <5 | <5 | 631 | 8.1 | <5 | – | – | – | – |
| Cc1cc2ncccc2cc1Nc1ncc2c(n1)n(C1CCN(C3COC3)CC1)c(=O)n2C [Example 47, 7-methyl-2-((7-methylquinolin-6-yl)amino)-9-(1-(oxetan-3-yl)piperidin-4-yl)-7,9-dihydro-8H-purin-8-one] | <5 | <5 | 200 | 9.0 | <5 | – | – | – | – |
| Cc1cc2ncccc2cc1Nc1ncc2c(n1)n(C1CCN(CCO)CC1)c(=O)n2C [Example 48, 9-(1-(2-hydroxyethyl)piperidin-4-yl)-7-methyl-2-((7-methylquinolin-6-yl)amino)-7,9-dihydro-8H-purin-8-one] | <5 | <5 | 316 | 9.0 | <5 | – | – | – | – |
| COCCN1CCC(n2c(=O)n(C)c3cnc(Nc4cc5cccnc5cc4C)nc32)CC1 [Example 49, 9-(1-(2-methoxyethyl)piperidin-4-yl)-7-methyl-2-((7-methylquinolin-6-yl)amino)-7,9-dihydro-8H-purin-8-one] | <5 | <5 | 251 | 8.8 | <5 | – | – | – | – |
| CCN1CCC(n2c(=O)n(C)c3cnc(Nc4cc5cccnc5cc4C)nc32)CC1 [Example 50, 9-(1-ethylpiperidin-4-yl)-7-methyl-2-((7-methylquinolin-6-yl)amino)-7,9-dihydro-8H-purin-8-one] | <5 | <5 | 398 | 8.4 | <5 | – | – | – | – |
| CC(=O)N1CCC(n2c(=O)n(C)c3cnc(Nc4cc5cccnc5cc4C)nc32)CC1 [Example 51, 9-(1-acetylpiperidin-4-yl)-7-methyl-2-((7-methylquinolin-6-yl)amino)-7,9-dihydro-8H-purin-8-one] | <5 | <5 | 12.6 | >10 | <5 | – | – | – | – |
